Measurements published in patent US20240228510A1, “KRAS G12C INHIBITORS” (Mirati Therapeutics, Inc., priority 2021, published 2024).

Test system: KRas G12C
Assay: Inhibition of KRas G12C-mediated pERK in H358 cells (Phospho-ERK In-Cell Western)
Type: cell-based
Details: Homo sapiens; NCI-H358 cells; 3 hours compound; pERK(Thr202/Tyr204) normalized to GAPDH; 4 parameter fit
Protocol: The cellular inhibition of KRAs G12C by exemplary compounds of the present invention was determined by measuring the amount of a downstream marker of KRas activity, phosphorylated ERK (“Phospho-ERK”).
NCI-H358 cells (ATCC CRL-5807) express KRas G12C and were grown in RPMI medium supplemented with 10% fetal bovine serum, penicillin/streptomycin and 10 mM HEPES. Cells were plated in poly-D-Lysine coated 96-well plates at a concentration of 50,000 cells/well and allowed to attach for 8-12 hours. Diluted compounds were then added at a final concentration of 0.5% DMSO. After 3 hours, the medium was removed, 150 μL of 4% formaldehyde was added and the plates were incubated for 20 minutes. The plates were washed with PBS, and permeabilized using 150 μL of ice cold 100% methanol for 10 minutes. Non-specific antibody binding to the plates was blocked using 100 μL Licor Blocking Buffer (Li-Cor Biotechnology, Lincoln NE) for 1 hour at room temperature. Positive control samples and samples lacking cells were parallel processed with test samples as standards.
The amount Phospho-ERK was determined using an antibody specific for the phosphorylated form of ERK and compared to the amount of GAPDH. Primary antibodies used for detection were added as follows: Phospho-ERK (Cell Signaling cs9101) diluted 1:500 and GAPDH (Millipore MAB374) diluted 1:5000 in Licor block+0.05% Tween 20. The plates were incubated for 2 hours at room temperature. The plates were washed with PBS+0.05% Tween 20.
Secondary antibodies used to visualize primary antibodies were added as follows: Anti-rabbit-680 diluted 1:1000 and Anti-mouse-800 diluted 1:1000 in Licor Block+0.05% Tween 20 and incubated for 1 hour at room temperature. The plates were washed with PBS+0.05% Tween 20. A 100 μL aliquot of PBS was added to each well and the plates were read on a LICOR AERIUS plate reader.
The pERK(Thr202/Tyr204) signal was normalized with the GAPDH signal and percent of DMSO control values were calculated. IC50 values were generated using a 4 parameter fit of the dose response curve.

Structure (SMILES)	IC50
C#Cc1c(F)ccc2cccc(-c3ncc4c(N5C[C@@H]6[C@H]5CCN6C(=O)C=C)c(Cl)cnc4c3F)c12 [Example 13, 1-((1R,5R)-6-(3-chloro-7-(8-ethynyl-7-fluoronaphthalen-1-yl)-8-fluoro-1,6-naphthyridin-4-yl)-2,6-diazabicyclo[3.2.0]heptan-2-yl)prop-2-en-1-one]	31 nM
C=CC(=O)N1CCN(c2c(C#N)cnc3c(F)c(-c4cccc5ccc(F)c(Cl)c45)ncc23)CC1 [Example 10, 4-(4-acryloylpiperazin-1-yl)-7-(8-chloro-7-fluoronaphthalen-1-yl)-8-fluoro-1,6-naphthyridine-3-carbonitrile]	3680 nM
C=CC(=O)N1CC[C@@H]2[C@H]1CN2c1snc2c(F)c(-c3cccc4ccc(F)c(Cl)c34)ncc12 [Example 17, 1-((1R,5R)-6-(6-(8-chloro-7-fluoronaphthalen-1-yl)-7-fluoroisothiazolo[4,3-c]pyridin-3-yl)-2,6-diazabicyclo[3.2.0]heptan-2-yl)prop-2-en-1-one]	6000 nM
C=CC(=O)N1CCN(c2ccnc3c(F)c(-c4cccc5ccc(F)c(Cl)c45)ncc23)CC1 [Example 1, 1-(4-(7-(8-chloro-7-fluoronaphthalen-1-yl)-8-fluoro-1,6-naphthyridin-4-yl)piperazin-1-yl)prop-2-en-1-one]	2740 nM
C=CC(=O)N1CCN(c2c(Cl)cnc3c(F)c(-c4cccc5ccc(F)c(Cl)c45)ncc23)CC1 [Example 7, 1-(4-(3-chloro-7-(8-chloro-7-fluoronaphthalen-1-yl)-8-fluoro-1,6-naphthyridin-4-yl)piperazin-1-yl)prop-2-en-1-one]	5910 nM
C#Cc1c(F)ccc2cccc(-c3ncc4c(N5C[C@@H]6[C@H]5CCN6C(=O)C=C)ccnc4c3F)c12 [Example 11, 1-((1R,5R)-6-(7-(8-ethynyl-7-fluoronaphthalen-1-yl)-8-fluoro-1,6-naphthyridin-4-yl)-2,6-diazabicyclo[3.2.0]heptan-2-yl)prop-2-en-1-one]	17 nM
C#Cc1cccc2cccc(-c3ncc4c(N5C[C@@H]6[C@H]5CCN6C(=O)C=C)snc4c3F)c12 [Example 19, 1-((1R,5R)-6-(6-(8-ethynylnaphthalen-1-yl)-7-fluoroisothiazolo[4,3-c]pyridin-3-yl)-2,6-diazabicyclo[3.2.0]heptan-2-yl)prop-2-en-1-one]	748 nM
C=CC(=O)N1CC2(CCN(c3snc4c(F)c(-c5cccc6ccc(F)c(Cl)c56)ncc34)CC2)C1 [Example 22, 1-(7-(6-(8-chloro-7-fluoronaphthalen-1-yl)-7-fluoroisothiazolo[4,3-c]pyridin-3-yl)-2,7-diazaspiro[3.5]nonan-2-yl)prop-2-en-1-one]	8000 nM
C#Cc1c(F)ccc2cccc(-c3ncc4c(N5C[C@@H]6[C@H]5CCN6C(=O)C=C)cc(C)nc4c3F)c12 [Example 14, 1-((1R,5R)-6-(7-(8-ethynyl-7-fluoronaphthalen-1-yl)-8-fluoro-2-methyl-1,6-naphthyridin-4-yl)-2,6-diazabicyclo[3.2.0]heptan-2-yl)prop-2-en-1-one]	21 nM
C=CC(=O)N1CCN(c2c(C)cnc3c(F)c(-c4cccc5ccc(F)c(Cl)c45)ncc23)CC1 [Example 5, 1-(4-(7-(8-chloro-7-fluoronaphthalen-1-yl)-8-fluoro-3-methyl-1,6-naphthyridin-4-yl)piperazin-1-yl)prop-2-en-1-one]	5000 nM
C=CC(=O)N1CC2(C1)CN(c1snc3c(F)c(-c4cccc5ccc(F)c(Cl)c45)ncc13)C2 [Example 20, 1-(6-(6-(8-chloro-7-fluoronaphthalen-1-yl)-7-fluoroisothiazolo[4,3-c]pyridin-3-yl)-2,6-diazaspiro[3.3]heptan-2-yl)prop-2-en-1-one]	7000 nM
C#Cc1c(F)ccc2cccc(-c3ncc4c(N5[C@@H]6CCN(C(=O)C=C)[C@@H]6[C@@H]5C)cc(OC)nc4c3F)c12 [Example 15, 1-((1R,5R,7S)-6-(7-(8-ethynyl-7-fluoronaphthalen-1-yl)-8-fluoro-2-methoxy-1,6-naphthyridin-4-yl)-7-methyl-2,6-diazabicyclo[3.2.0]heptan-2-yl)prop-2-en-1-one]	1440 nM
C=CC(=O)N1CCN(c2c(F)cnc3c(F)c(-c4cccc5ccc(F)c(Cl)c45)ncc23)CC1 [Example 2, 1-(4-(7-(8-chloro-7-fluoronaphthalen-1-yl)-3,8-difluoro-1,6-naphthyridin-4-yl)piperazin-1-yl)prop-2-en-1-one]	3050 nM
C=CC(=O)N(C)C1CN(c2snc3c(F)c(-c4cccc5ccc(F)c(Cl)c45)ncc23)C1 [Example 21, N-(1-(6-(8-chloro-7-fluoronaphthalen-1-yl)-7-fluoroisothiazolo[4,3-c]pyridin-3-yl)azetidin-3-yl)-N-methylacrylamide]	9000 nM
C#Cc1cccc2cc(O)cc(-c3ncc4c(N5C[C@@H]6[C@H]5CCN6C(=O)C=C)snc4c3F)c12 [Example 18, 1-((1R,5R)-6-(6-(8-ethynyl-3-hydroxynaphthalen-1-yl)-7-fluoroisothiazolo[4,3-c]pyridin-3-yl)-2,6-diazabicyclo[3.2.0]heptan-2-yl)prop-2-en-1-one]	14 nM
C#Cc1cccc2cc(O)cc(-c3ncc4c(N5C[C@@H]6[C@H]5CCN6C(=O)C=C)c(Cl)cnc4c3F)c12 [Example 8, 1-((1R,5R)-6-(3-chloro-7-(8-ethynyl-3-hydroxynaphthalen-1-yl)-8-fluoro-1,6-naphthyridin-4-yl)-2,6-diazabicyclo[3.2.0]heptan-2-yl)prop-2-en-1-one]	1 nM
C=CC(=O)N1CCN(c2c(OC)cnc3c(F)c(-c4cccc5ccc(F)c(Cl)c45)ncc23)CC1 [Example 9, 1-(4-(7-(8-chloro-7-fluoronaphthalen-1-yl)-8-fluoro-3-methoxy-1,6-naphthyridin-4-yl)piperazin-1-yl)prop-2-en-1-one]	9000 nM
C#Cc1c(F)ccc2cccc(-c3ncc4c(N5C[C@@H]6[C@H]5CCN6C(=O)C=C)c(OC)cnc4c3F)c12 [Example 6, 1-((1R,5R)-6-(7-(8-ethynyl-7-fluoronaphthalen-1-yl)-8-fluoro-3-methoxy-1,6-naphthyridin-4-yl)-2,6-diazabicyclo[3.2.0]heptan-2-yl)prop-2-en-1-one]	22 nM
C#Cc1c(F)ccc2cccc(-c3ncc4c(N5C[C@@H]6[C@H]5CCN6C(=O)C=C)c(C#N)cnc4c3F)c12 [Example 12, 4-((1R,5R)-2-acryloyl-2,6-diazabicyclo[3.2.0]heptan-6-yl)-7-(8-ethynyl-7-fluoronaphthalen-1-yl)-8-fluoro-1,6-naphthyridine-3-carbonitrile]	24 nM
C=CC(=O)N1CC[C@@H]2[C@H]1CN2c1c(Cl)cnc2c(F)c(-c3cccc4ccc(F)c(Cl)c34)ncc12 [Example 4, 1-((1R,5R)-6-(3-chloro-7-(8-chloro-7-fluoronaphthalen-1-yl)-8-fluoro-1,6-naphthyridin-4-yl)-2,6-diazabicyclo[3.2.0]heptan-2-yl)prop-2-en-1-one]	169 nM
C#Cc1c(F)ccc2cccc(-c3ncc4c(N5[C@@H]6CCN(C(=O)C=C)[C@@H]6[C@@H]5C)cc(C)nc4c3F)c12 [Example 16, 1-((1R,5R,7S)-6-(7-(8-ethynyl-7-fluoronaphthalen-1-yl)-8-fluoro-2-methyl-1,6-naphthyridin-4-yl)-7-methyl-2,6-diazabicyclo[3.2.0]heptan-2-yl)prop-2-en-1-one]	73 nM
C#Cc1cccc2cccc(-c3ncc4c(N5C[C@@H]6[C@H]5CCN6C(=O)C=C)c(Cl)cnc4c3F)c12 [Example 3, 1-((1R,5R)-6-(3-chloro-7-(8-ethynylnaphthalen-1-yl)-8-fluoro-1,6-naphthyridin-4-yl)-2,6-diazabicyclo[3.2.0]heptan-2-yl)prop-2-en-1-one]	75 nM
